Measurements as given in patent US4517196A, “Tricyclic thiazolyloxamic acids and their derivatives, their preparation, and therapeutic agents containing these compounds” (BASF Aktiengesellschaft, priority 1981, dated 1985).

Tested on: passive cutaneous anaphylaxis
Test: antiallergic action, passive cutaneous anaphylaxis (PCA) in rats, oral
Type: in vivo, rat
Details: for ED50: Rattus norvegicus, read-out: Inhibition of PCA, ED 50%; for times more effective than the comparative compound V1: administered orally; for Inhibition of PCA, relative effectiveness: relative to comparative compound V1 (1.00)
Description: The antiallergic action was tested against passive cutaneous anaphylaxis in rats.
Narcotized male rats (weighing from 100 to 140 g) are sensitized by administration of an intradermal injection (shaved skin) of 0.1 ml of an ovalbumin antiserum. After a sensitization period of about 48 hours, treatment is carried out by administering various dosages (10 animals/dose) of the test substances intraperitoneally or orally. 15 and 20 minutes after treatment, an anitgen/Evans blue mixture (10 mg/kg of ovalbumin in 2% strength Evans blue solution) is injected intravenously into the experimental animals. 30 minutes later, the animals are killed, and the back skin is peeled off and the diameter of the circular blue area on the inner surface is measured. The size of the colored spot in untreated control animals may be standardized. Antiallergic substances reduce the diameter of the colored spots, their reduction being dependent on the dose. The ED 50% is the dose which produces a 50% reduction in the diameter of the colored spot in comparison with control animals which have not been treated with the drug.

[1] = oral administration, rats, dose giving 50% reduction in diameter of colored spot vs untreated controls

Compound | ED50 [1] [mg/kg] | times more effective than the comparative compound V1 [times] | Inhibition of PCA, relative effectiveness (oral administration, rats) | oral effectiveness in doses up to 100 mg/kg (oral, doses up to 100 mg/kg, commercial preparation Intal) | Inhibition of PCA, ED 50% [1] [mg/kg]
O=C(O)C(=O)Nc1nc2c(s1)Cc1ccccc1-2 [Example 4, N-(Indeno[1,2-d]thiazol-2-yl)-oxamic acid] | 1.3 | 6.6 | 6.61 | – | –
CCOC(=O)C(=O)Nc1nc2c(s1)C(=O)c1ccccc1-2 [Example 2, Ethyl N-(8-oxoindeno[1,2-d]thiazol-2-yl)-oxamate] | 1.95 | 4.4 | 4.41 | – | –
CCOC(=O)C(=O)Nc1nc2c(s1)Cc1ccccc1-2 [Example 1, Ethyl N-(indeno[1,2-d]thiazol-2-yl)-oxamate] | 1.48 | – | 5.81 | – | –
O=C(O)c1cc(=O)c2c(OCC(O)COc3cccc4oc(C(=O)O)cc(=O)c34)cccc2o1 [cromolyn, reference compound] | 100 | – | – | orally ineffective | –
O=C(O)C(=O)Nc1nc2ccccc2s1 [Example V1, N-benzothiazol-2-yl oxamate, reference compound] | – | – | 1.00 | – | > 8.60
